# B1: minimal non-coding Alu-loops at the tetraloop and stem-loop 2: sgRNA backbone with truncated Alu loop at tetraloop and stem-loop 2 (nucleic acid)
# guide: GTTTTAGAGCTAGAGGCAGGAGAATGGCGTGAACCCGGGAGGTGGCCGAGATCGCTCCAGCCTGGGTGACAGAGCGAGACTCTGTCTCTAGCAAGTTAAAATAAGGCTAGTCCGTTATCAACTTGAGGCAGGAGAATGGCGTGAACCCGGGAGGTGGCCGAGATCGCTCCAGCCTGGGTGACAGAGCGAGACTCTGTCTCAAGTGGCACCGAGTCGGTGCTTTTTTT
# B2: sgRNA 2.0: sgRNA scaffold in which the tetraloop and stem-loop 2 sequences have been replaced by an MS2 binding loop (nucleic acid)
# guide: NNNNNNNNNNNNNNNNNNNNGUUUUAGAGCUAGGCCAACATGAGGATCACCCATGTCTGCAGGGCCUAGCAAGUUAAAAUAAGGCUA
# modifications: /note=“Description of Combined DNA/RNA Molecule Synthetic oligonucleotide”; modified_base (1)..(20) a, c, t, g, unknown or other
# Legend:
# MS2 RNA aptamer = details: cited from earlier work
# DNA = assay: indel formation by double nicking with sgRNA pairs; type: cell-based; details: substitution of Cas9n in a given sgRNA pair
# Source text: Aspects of the invention relate to the expression of the gene product being decreased or a template polynucleotide being further introduced into the DNA molecule encoding the gene product or an intervening sequence being excised precisely by allowing the two 5′ overhangs to reanneal and ligate or the activity or function of the gene product being altered or the expression of the gene product being increased. In an embodiment of the invention, the gene product is a protein. Only sgRNA pairs creating 5′ overhangs with less than 8 bp overlap between the guide sequences (offset greater than −8 bp) were able to mediate detectable indel formation. […] Nonetheless, a pair of sgRNAs that will generate a 5′ overhang with Cas9n should in principle generate the corresponding 3′ overhang instead, and double nicking. […] Accordingly, in some embodiments, a recombination template is also provided. A recombination template may be a component of another vector as described herein, contained in a separate vector, or provided as a separate polynucleotide. In some embodiments, a recombination template is designed to serve as a template in homologous recombination, such as within or near a target sequence nicked or cleaved by a CRISPR enzyme as a part of a CRISPR complex. […]
# [1] = tested on: A375 melanoma cell line (BRAF V600E); details: cited from earlier work
# Factor VII = details: LNP siRNA systems containing the lipid; cited from earlier work
# CXCR4, CACNAC1A = assay: repression by non-coding Alu loops in the sgRNA with dCas9, HEK293FT, qPCR; type: cell-based, human; details: in complex with dCas9
# Procedure: The non-coding Alu RNA has previously been described as a transacting repressor interfering with RNA polymerase II in mammalian cells. In addition, a minimal loop required for repression has been identified (sciencedirect.com/science/article/pii/S1097276508000026). Applicants designed guides with different sites of incorporation of the truncated Alu loop (and in combination with PP7 loops). Sequences for these sgRNA backbones are listed below: […]
# A total plasmid mass of 0.3 μg/well was transfected using 0.6 μL/well Lipofectamine 2000 (Life Technologies) according to the manufacturer's instructions. […] Relative RNA expression levels were quantified by reverse transcription and quantitative PCR (qPCR) using TaqMan qPCR probes (Life Technologies) and Fast Advanced Master Mix (Life Technologies). qPCR was carried out in 5 μL multiplexed reactions and 384-well format using the LightCycler 480 Instrument II. Data was analyzed by the ΔΔCt method: target Ct values (FAM dye) were normalized to GAPDH Ct values (VIC dye), and fold changes in target gene expression were determined by comparing to GFP-transfected experimental controls.
# human ASCL1 = assay: ASCL1 activation in HEK293FT cells, qPCR; type: cell-based
# Procedure: (§1) Human HEK293FT cells were maintained in high-glucose DMEM with GlutaMax and sodium pyruvate (Life Technologies) supplemented with 10% heat-inactivated characterized HyClone fetal bovine serum (Thermo Scientific) and 1% penicillin/streptomycin (Life Technologies). Cells were passaged daily at a ratio 1 to 2 or 1 to 2.5. For MS2/dCas9 activator experiments, 20,000 HEK293FT cells were plated in 100 μL of culture medium in poly-d-lysine coated 96-well plates (BD biosciences). […]
# (§2) Total plasmid mass per well was 0.3 micrograms. […] Gene expression levels were quantified by using Taqman qPCR probes (Life technologies) and Fast Advanced Master Mix (Life Technologies). ASCL1 and MYOD1 expression levels were calculated relative to GAPDH expression level. Fold gene expression levels were determined by comparison to samples transfected with GFP plasmid only. […]
# (§3) A total plasmid mass of 0.3 ug/well was transfected using 1.5 uL/well Lipofectamine 2000 (Life Technologies) according to the manufacturer's instructions. […] Relative RNA expression levels were quantified by reverse transcription and quantitative PCR (qPCR) using Taqman qPCR probes (Life technologies) and Fast Advanced Master Mix (Life Technologies). qPCR was carried out in 5 uL multiplexed reactions and 384-well format using the LightCycler 480 Instrument II. […]
# human MYOD1 = assay: MYOD1 activation in HEK293FT cells, qPCR; type: cell-based
# Procedure: as §1, §2, §3
# Neurog2 = Neurog2 upregulation in Neuro-2a cells, qRT-PCR; type: cell-based
# Procedure: 120,000 cells were plated in each well of a 24-well plate 18-20 h before transfection. Cells were transfected with Lipofectamine transfection reagent (Life Technologies) according to the manufacturer's instructions.
# RNA was extracted using the RNeasy kit (Qiagen) according to manufacturer's instructions and […] of RNA per sample was reverse-transcribed using qScript (Quanta Biosystems). Relative mRNA levels were measured by reverse transcription and quantitative PCR (qRT-PCR) using TaqMan probes specific for the targeted gene as well as GAPDH as an endogenous control (Life Technologies). ddCt analysis was used to obtain fold-changes relative to negative controls transfected with GFP only.
# A minimal hairpin aptamer capable of binding to the bacteriophage coat protein MS2, which is known to be capable of binding MS2 through strong sequence- and structure-specific interactions in mammalian cells^18,19, to incorporate into tetraloop and stem-loop 2 (FIG. 27b) was chosen. Tests were performed to evaluate whether MS2-mediated recruitment of VP64 to the tetraloop and stem-loop 2 could mediate transcriptional up-regulation more efficiently than a dCas9-VP64 fusion alone. Aptamer-mediated recruitment of MS2-VP64 to either tetraloop (sgRNA 1.1) or stem-loop 2 (sgRNA 1.2) mediated 3- and 5-fold higher levels of Neurog2 up-regulation than a dCas9-VP64 fusion (sgRNA 1.0), respectively.
molecule,measurement,setting,value
"N55K mutant of the MS2 bacteriophage coat protein: MS2 variant, N55K mutant","binding affinity, in words",MS2 RNA aptamer,higher binding affinity than wild type MS2
H840A: Cas9 with the H840A mutation in the HNH domain,"indel formation, in words",DNA,no indel formation is observed
CCCS(=O)(=O)Nc1ccc(F)c(C(=O)c2c[nH]c3ncc(Cl)cc23)c1F [PLX4720],"sensitivity of A375 cells, in words",[1],naturally sensitive
"CCCCC/C=C\C/C=C\CCCCCCCCC1(CCCCCCCC/C=C\C/C=C\CCCCC)OCC(CCN(C)C)O1 (centres unmarked) [DLinKC2-DMA, 1,2-dilinoleyl-4-(2-dimethylaminoethyl)-[1,3]-dioxolane]","gene silencing potency, rank order",Factor VII,DLinKC2-DMA>DLinKDMA>DLinDMA>>DLinDAP
"CCCCC/C=C\C/C=C\CCCCCCCC(=O)OCC(CN(C)C)OC(=O)CCCCCCC/C=C\C/C=C\CCCCC (centres unmarked) [DLinDAP, 1,2-dilineoyl-3-dimethylammonium-propane]","gene silencing potency, rank order",Factor VII,DLinKC2-DMA>DLinKDMA>DLinDMA>>DLinDAP
"1,2-dilinoleyloxy-keto-N,N-dimethyl-3-aminopropane [DLinKDMA]","gene silencing potency, rank order",Factor VII,DLinKC2-DMA>DLinKDMA>DLinDMA>>DLinDAP
"CCCCC/C=C\C/C=C\CCCCCCCCOCC(CN(C)C)OCCCCCCCC/C=C\C/C=C\CCCCC (centres unmarked) [DLinDMA, 1,2-dilinoleyloxy-3-N,N-dimethylaminopropane]","gene silencing potency, rank order",Factor VII,DLinKC2-DMA>DLinKDMA>DLinDMA>>DLinDAP
B1,"repression of target gene expression, in words","CXCR4, CACNAC1A",able to repress target gene expression in complex with dCas9
B2,"ASCL1 activation, comparison in words",human ASCL1,more potent than either of the 3′ MS2 sgRNA architectures
same,levels of transcription activation relative to sgRNA+2×MS2,human ASCL1; ASCL1,14 fold
same,"MYOD1 activation, comparison in words",human MYOD1,more potent than either of the 3′ MS2 sgRNA architectures
same,levels of transcription activation relative to sgRNA+2×MS2,human MYOD1; MYOD1,8.5 fold
same,levels of Neurog2 up-regulation relative to a dCas9-VP64 fusion (sgRNA 1.0),"Neurog2; aptamer-mediated recruitment of MS2-VP64, with dCas9",12 fold
same,"target gene upregulation (Neurog2), in words","Neurog2; with dCas9-vp64 and MS2-vp64, compared with regular guide and dCas9-vp64",much higher target gene upregulation compared to the previous design

# — US11001829B2, “Functional screening with optimized functional CRISPR-Cas systems” (The Broad Institute, Inc., priority 2014, dated 2021)
